The record followed here is patent publication US20220073557A1, “FLUORINATED BILE ACIDS” (NZP UK LIMITED, priority 2018, published 2022).

The structures appear in SMILES notation.

The test system of experiment [1] is sporadic PD patient fibroblasts. Description: Mitochondrial membrane potential (MMP, TMRM) in sporadic PD patient fibroblasts. The class given is cell-based. The note with it: Homo sapiens, Fibroblast, 24 h; for activity at 0.3 µM: read-out: MMP Top (% of vehicle treated); for activity at 60 pM: read-out: MMP Bottom (% of vehicle treated). The procedure: (§1) Fibroblasts were cultured in DMEM (Invitrogen) and routinely subcultured every 3-5 days using trypsin to dissociate them.
Fibroblasts were cultured and plated into a Griener black 384 pClear® plate at 10000 cells per well in 50 μl of media volume. The plates are left overnight in an incubator to allow the fibroblasts to adhere to the plate surface. The following morning the Glucose based medium is replaced with 25 μl of Galactose based media. The plates were then dosed with the compounds using an ECHO® 550 liquid handling system. The wells were dosed to provide an 8-point concentration range of 0.06 nM-300 nM of compound. After dosing the wells are topped up with a further 25 μl of Galactose based medium and then left in an incubator for 24 hours. After 24 hours, the medium is removed from the wells and replaced with 25 ul phenol free Minimal essential medium with 100 nM TMRM (Sigma) and 10 μM Hoechst Stain (Sigma). The plate is returned to the incubator for another hour after which the stain medium is removed and replaced with 25 ul Phenol free MEM. The plate is then imaged using an IN Cell high content microscope (GE Healthcare) with 10 fields of view per well in 2 channels, Cy3 excitation 542 nm, emission 604-64 nm; and the DAPI excitation 350 nm, emission 450-55 nm at 37° C. with CO2. After imaging the plate is disposed of and the images are Data mined using the INCell developer Toolkit (GE Healthcare).
(§2) After the assays had been repeated in triplicate per line and compound the data was then inputted into Graph pad Prism 7 software suite where a dose response curve is generated using the default “[Agonist] vs response (three parameters)” equation.
(§3) From this EC50 values, lowest response and maximal response were taken and used to calculate the Geometric mean between the 5 different lines assessed.
The mitochondrial membrane potential was measured in fibroblasts from 6 (Table 1) or 3 (Table 2) patients with sporadic Parkinson's disease when treated with Compounds of the invention or Comparator compounds. The results are shown in Tables 1 and 2, where “Bottom”=max response with lowest dose of compound (0.06 nM) and “top”=max response with highest dose of compound (300 nM).

Experiment [2] shares this test system. Description: Cellular ATP levels (ATPlite, normalised to CyQUANT DNA content) in sporadic PD patient fibroblasts. The class given is cell-based. As to conditions: Homo sapiens, Fibroblast, 24 h; for activity at 0.3 µM: read-out: Cellular ATP levels Top (% of vehicle treated); for activity at 60 pM: read-out: Cellular ATP levels Bottom (% of vehicle treated). The method, then: as §1
The ATP protocol is generally as described in Mortiboys et al, “Mitochondrial function and morphology are impaired in parkin-mutant fibroblasts”, Ann Neurol. 2008 November; 64(5):555-65. Briefly, fibroblasts were cultured as and plated into white 384 well plates with 5000 cells per well in 50 μl of media volume. The plates are left overnight in an incubator to allow the fibroblasts to adhere to the plate surface. The following morning the Glucose based medium is replaced with 25 μl of Galactose based medium. The compounds are added to the plates using a ECHO 550 liquid handling system. The wells were dosed to provide an 8-point concentration range of 0.06 nM-300 nM of compound. After dosing the wells are topped up with a further 25 μl of Galactose based medium and then left in an incubator for 24 hours. Following this incubation the medium is removed from the plate and the wells are washed twice with sterile PBS. The wells are filled with 25 μl of Sterile PBS followed by 12.5 μl of Lysis solution from the ATPlite™ Luminescence ATP detection assay system (Perkin Elmer), including 16 cell free wells to use as blank controls. The plate is then placed on a rotary shaker for 5 mins at 700 rpm. Following the shaking 12.5 μl of ATP substrate solution (Perkin Elmer) is added to each well and a further 5 min of shaking. The plate is then placed in darkness for 10 minutes prior to reading. Using a PHERAStar® plate reader, luminescence intensity is recorded. Following the ATP assay the plates are immediately assayed for DNA content in a CyQUANT® assay.
Immediately following The ATP assay DNA content is assessed with the CyQUANT® NF Cell Proliferation Assay Kit (ThermoFisher). CyQUANT® buffer is prepared immediately before the assay and is comprised of 1 ul CyQUANT® dye per ml×1 HBSS solution. 12.5 ul of CyQUANT® buffer is added to each well. Plate left in incubator for 1 hour then read on a PHERAStar® Plate reader with excitation at 497 nm and emission at 520 nm. ATP Quantification for each well is determined using the following formula: […]
as §2, §3
Cellular ATP levels were measured in fibroblasts from 6 (Table 3) or 3 (Table 4) patients with sporadic Parkinson's disease when treated with Compounds of the invention or Comparator compounds. The results are shown in Tables 3 and 4, where “Bottom”=max response with lowest dose of compound (0.06 nM) and “top”=max response with highest dose of compound (300 nM).

The mark [3] stands for this setting: 6 sporadic PD patient fibroblasts, read-out: MMP EC50.
Setting [4] is: max response with highest dose (300 nM), 6 sporadic PD patient fibroblasts.
Setting [5] is: max response with lowest dose (0.06 nM), 6 sporadic PD patient fibroblasts.
[6] abbreviates: 6 sporadic PD patient fibroblasts, read-out: Cellular ATP levels EC50.
[7] abbreviates: read-out: Cellular ATP levels EC50 (nM).
[8] abbreviates: 3 sporadic PD patient fibroblasts, read-out: MMP EC50.
[9] abbreviates: max response with highest dose (300 nM), 3 sporadic PD patient fibroblasts.
Where [10] appears, read: max response with lowest dose (0.06 nM), 3 sporadic PD patient fibroblasts.
[11] abbreviates: 3 sporadic PD patient fibroblasts, read-out: Cellular ATP levels EC50.

Consider `C[C@H](CCC(=O)O)[C@H]1CC[C@H]2[C@@H]3[C@@H](O)C[C@@H]4C[C@@H](O)C(F)=C[C@]4(C)[C@H]3CC[C@]12C` [Compound F, 2-fluoro-3β,7β-dihydroxy-5β-chol-1-enic acid, reference compound], for which the results for the EC50 in experiment [1] (setting [3]) and in experiment [2] (setting [6]) were 0.674 nM and 1.91 nM, respectively. Moreover, the activity at 0.3 µM came out at 108% in experiment [1] (setting [4]) and 112% in experiment [2] (setting [4]). Further, the activity at 60 pM in experiment [1] (setting [5]) came to 110%; in experiment [2] (setting [5]), 99.9%.

As to `C[C@H](CCC(=O)O)[C@H]1CC[C@H]2[C@@H]3C(=O)C[C@@H]4CC(=O)C(F)(F)C[C@]4(C)[C@H]3CC[C@]12C` [Compound E, 2,2-difluoro-3,7-dioxo-5β-cholanic acid, reference compound], the EC50 (commonly the concentration that produces a half-maximal response) worked out at 23.3 nM in experiment [1] (setting [3]) and 18.8 nM in experiment [2] (setting [6]). Further, the activity at 0.3 µM in experiment [1] (setting [4]) is 112%; in experiment [2] (setting [4]), 136%. The activity at 60 pM in experiment [1] (setting [5]) was 105%; in experiment [2] (setting [5]), 81.6%.

Take `C[C@H](CCC(=O)N1CCC[C@H](C(=O)O)C1)[C@H]1CC[C@H]2[C@@H]3[C@@H](O)C[C@@H]4C[C@@H](O)C(F)(F)C[C@]4(C)[C@H]3CC[C@]12C` [Compound 14, Sodium 1-(2,2-difluoro-3β,7β-dihydroxy-5β-cholan-24-oyl)-piperidine-3-carboxylate]: the activity at 60 pM stood at 94.3% in experiment [1] and 107% in experiment [2]. For the same molecule, the EC50 worked out at 18.9 nM in experiment [1] (read-out: MMP EC50 (nM)) and 1.3 nM in experiment [2] (setting [7]). The activity at 0.3 µM in experiment [1] was 167%; in experiment [2], 127%.

For `C[C@H](CCC(=O)N(C)CCS(=O)(=O)O)[C@H]1CCC2C3C(CC[C@@]21C)[C@@]1(C)CC(F)(F)[C@H](O)C[C@H]1C[C@@H]3O` (stereo partly drawn) [Compound 19, Sodium N-(methyl)-N-(2,2-difluoro-3β,7β-dihydroxy-5β-cholan-24-amide) ethylsulfonic acid], the activity at 60 pM in experiment [1] worked out at 95.9%; in experiment [2] it was 98.8%. In addition, the EC50 in experiment [1] (read-out: MMP EC50 (nM)) is 104 nM; in experiment [2] (setting [7]) it was 8.9 nM. The results for the activity at 0.3 µM in experiment [1] and in experiment [2] were 143% and 122%, respectively.

Take `C[C@H](CCC(=O)O)[C@H]1CC[C@H]2[C@@H]3[C@H](O)C[C@@H]4C[C@H](O)C(F)=C[C@]4(C)[C@H]3CC[C@]12C` [Compound H, 2-fluoro-3α,7α-dihydroxy-5β-chol-1-enic acid, reference compound]: the figures for the EC50 in experiment [1] (setting [3]) and in experiment [2] (setting [6]) were 4.58 nM and 0.125 nM, respectively. Further, the values for the activity at 0.3 µM in experiment [1] (setting [4]) and in experiment [2] (setting [4]) were 109% and 121%, respectively. For the same molecule, the activity at 60 pM in experiment [1] (setting [5]) worked out at 99.8%; in experiment [2] (setting [5]) it was 87.6%.

Consider `C[C@H](CCC(=O)NCC(=O)O)[C@H]1CCC2C3C(CC[C@@]21C)[C@@]1(C)CC(F)(F)[C@H](O)C[C@H]1C[C@@H]3O` (stereo partly drawn) [Compound 17, Sodium N-(2,2-difluoro-3β,7β-dihydroxy-5β-cholan-24-amide)-methylcarboxylic acid], for which the activity at 60 pM in experiment [1] stood at 88.9%; in experiment [2] it was 101%. In addition, the EC50 was 128 nM in experiment [1] (read-out: MMP EC50 (nM)) and 17.2 nM in experiment [2] (setting [7]). Further, the activity at 0.3 µM was found to be 152% in experiment [1] and 132% in experiment [2].

For `C[C@H](CCC(=O)NC1CCCS(=O)(=O)C1)[C@H]1CC[C@H]2[C@@H]3[C@@H](O)C[C@@H]4C[C@@H](O)C(F)(F)C[C@]4(C)[C@H]3CC[C@]12C` (stereo partly drawn) [Compound 31, N-(2,2-difluoro-3β,7β-dihydroxy-5β-cholan-24-oyl) 1,1-dioxidotetrahydro-2H-thiopyran-3-ylamine], the EC50 was 5.5 nM in experiment [1] (setting [8]) and 13.3 nM in experiment [2] (setting [11]). In addition, the activity at 0.3 µM in experiment [1] (setting [9]) stood at 151%; in experiment [2] (setting [9]), 133%. In addition, the activity at 60 pM in experiment [1] (setting [10]) stood at 99.6%; in experiment [2] (setting [10]), 108%.

Regarding `C[C@H](CCC(=O)NCCCS(=O)(=O)O)[C@H]1CC[C@H]2[C@@H]3[C@@H](O)C[C@@H]4C[C@@H](O)C(F)(F)C[C@]4(C)[C@H]3CC[C@]12C` [Compound 20, Sodium 3-(2,2-difluoro-3β,7β-dihydroxy-5β-cholan-24-oyl) amino-propanesulfonate], the activity at 60 pM is 99.8% in experiment [1] and 102% in experiment [2]. For the same molecule, the 50% effective concentration (EC50) in experiment [1] (read-out: MMP EC50 (nM)) is 17.7 nM; in experiment [2] (setting [7]), 34.7 nM. Besides, the activity at 0.3 µM in experiment [1] was determined as 147%; in experiment [2], 122%.

Take `C[C@H](CCC(=O)NCCS(C)(=O)=O)[C@H]1CC[C@H]2[C@@H]3[C@@H](O)C[C@@H]4C[C@@H](O)C(F)(F)C[C@]4(C)[C@H]3CC[C@]12C` [Compound 27, N-(2,2-difluoro-3β,7β-dihydroxy-5β-cholan-24-oyl) 2-aminoethyl methyl sulfone]: the EC50 turned out to be 171 nM in experiment [1] (setting [8]) and 16.6 nM in experiment [2] (setting [11]). For the same molecule, the activity at 0.3 µM in experiment [1] (setting [9]) is 159%; in experiment [2] (setting [9]) it was 114%. Moreover, the activity at 60 pM in experiment [1] (setting [10]) came out at 103%; in experiment [2] (setting [10]) it was 101%.

Regarding `C[C@H](CCC(=O)N1CCS(=O)(=O)CC1)[C@H]1CCC2C3C(CC[C@@]21C)[C@@]1(C)CC(F)(F)[C@H](O)C[C@H]1C[C@@H]3O` (stereo partly drawn) [Compound 30, N-(2,2-difluoro-3β,7β-dihydroxy-5β-cholan-24-oyl)-thiomorpholine-dioxide], the half-maximal effective concentration (EC50) in experiment [1] (setting [8]) amounted to 21 nM; in experiment [2] (setting [11]), 4.2 nM. Also, the figures for the activity at 0.3 µM in experiment [1] (setting [9]) and in experiment [2] (setting [9]) were 156% and 115%, respectively. The figures for the activity at 60 pM in experiment [1] (setting [10]) and in experiment [2] (setting [10]) were 98.4% and 96.7%, respectively.
